{"source": "patent US4745124A", "about": "“Orally effective anti-hypertensive agents” (priority 1983, dated 1988)", "key": {"[1]": {"tested_on": "pressor effects of angiotensin I", "experiment": "intravenous effectiveness: blood pressure response to angiotensin I in anesthetized rats", "format": "in vivo, rat", "settings": "for Blood Pressure Response to 400 ng/kg of Angiotensin I: i.v. 1 μmole/kg, Ex. 245; for Blood Pressure Response to 400 ng/kg Angiotensin I: i.v. 2 μmol/kg, Ex. 232", "experimental": "Anesthetized rats were prepared as described in Example 228. After the responsiveness of a given rat to angiotensin I was established, the named compound at 2 μmol/kg, in a volume of 15 μl of 0.01N sodium bicarbonate, was injected via a femoral vein. At timed intervals, the effects of angiotensin I, 400 ng/kg, on mean arterial blood pressure were tested. Results are shown below:\nAnesthetized rats were prepared as described in Example 231. After the responsiveness of a given rat to angiotensin I was established, the named compound, at 2 μmol/kg, in a volume of 15 μl of 0.01N sodium bicarbonate, was injected via a femoral vein. At timed intervals, the effects of angiotensin I, 400 ng/kg, on mean arterial blood pressure were tested. Results are shown below:\nAnesthetized rats were prepared as described in Example 239. The animals were administered the named compound via a femoral vein in 15 μl of 0.01N sodium bicarbonate, after the control response to 400 ng/kg of angiotensin I was measured. […] The time required for recovery of one half of the lost responsiveness to angiotensin I, following injection of the named compound, was designated t1/2. […] Results are shown for two dose levels:\nAnesthetized rats were prepared as described in Example 242. The named compound was administered intravenously via a femoral vein, at the stated dose, in 15 μl of 0.01N sodium bicarbonate. The response to intravenous administration was a rapid decrease in responsiveness to Angtiotensin I, 400 ng/kg, followed by a gradual recovery to the pretreatment level of responsiveness. The time required for recovery of one half the lost responsiveness to angiotensin I, following injection of the named compound, is designated t1/2. […] Results are shown for the three dose levels:\nThe intravenous effectiveness of the named compound was examined by following the procedure described in Example 244 except that 1 μmole/kg of the drug was given intravenously. The results are shown below:\nThe intravenous effectiveness of the named compound was examined by following the procedure described in Example 246 except that 1 μmole/Kg of the drug was given intravenously."}, "[2]": {"tested_on": "pressor effects of angiotensin I", "experiment": "oral effectiveness: blood pressure response to angiotensin I in anesthetized rats", "format": "in vivo, rat", "experimental": "Rats (210-290 g body weight) were fasted overnight and then anesthetized with intraperitoneal pentobarbital, 50-60 mg/kg. Tracheostomy was performed and the animals were ventilated mechanically. A cannula was inserted into a femoral vein for injection of angiotensin I or II, and a second cannula was inserted into a common carotid artery for direct measurement of arterial blood pressure. Heparin, 1,000 units, was injected via the femoral vein to prevent coagulation. Blood pressure was measured with a pressure transducer connected to a polygraph. The rats were injected with 80 ng of angiotensin I or angiotensin II in 20 μl of 0.9 g % NaCl; an amount of antiotensin I or II sufficient to raise mean arterial blood pressure by 27-40 mm Hg. After the responsiveness of a given rat to angiotensins I and II was established, compound (I), at 2 or 5 mg/kg (drug dissolved in 0.5 ml of H2 O plus 10 μl of 1N NaHCO3), was given via a stomach tube. At timed intervals, the effects of 80 ng of angiotensin I or angiotensin II on mean arterial blood pressure were tested.\nRats were prepared as described in Example 222. Compound (II) [N-benzoyl-L-phenylalanylthiopropanoyl)-L-proline] was given orally, via a stomach tube, at a dose of 12 mg/kg or 20 mg/kg. Compound (II) was dissolved in 0.5 ml of H2 O plus 10 μl of 1N NaHCO3. In all other respects, the experimental preparations were exactly as described in Example 222.\nRats (210-290 g body weight) were fasted overnight and then anesthetized with intraperitoneal pentobarbital, 50-60 mg/kg. Tracheostomy was performed and the animals were ventilated mechanically. A cannula was inserted into a femoral vein for injection of angiotensin I or II, and a second cannula was inserted into a common carotid artery for direct measurement of arterial blood pressure. Heparin, 1,000 units, was injected via the femoral vein to prevent coagulation. Blood pressure was measured with a pressure transducer connected to a polygraph. The rats were injected with 160 ng of angiotensin I or 80 ng of angiotensin II in 20 μl of 0.9 g % NaCl; an amount of angiotensin I or II sufficient to raise mean arterial blood pressure by 27-40 mm Hg. After the responsiveness of a given rat to angiotensins I and II was established, compound (B) at 10 mg (drug dissolved in 0.5 ml of H2 O plus 10 μl of 1N NaHCO3), was given via a stomach tube. At timed intervals, the effects of 160 ng of angiotensin I or 80 ng of angiotensin II on mean arterial blood pressure were tested. Results are shown below:\nRats (210-290 g body weight) were fasted overnight and then anesthetized with intraperitoneal pentobarbital, 50-60 mg/kg. Tracheostomy was performed and the animals were ventilated mechanically. A cannula was inserted into a femoral vein for injection of angiotensin I, and a second cannula was inserted into a common carotid artery for direct measurement of arterial blood pressure. Heparin, 1,000 units, was injected via the femoral vein to prevent coagulation. Blood pressure was measured with a pressure transducer connected to a polygraph. The rats were injected with 400 ng/kg of angiotensin I in 20 μl of 0.9 g % NaCl; an amount of angiotensin I sufficient to raise mean arterial blood pressure by 39 mm Hg. After the responsiveness of a given rat to angiotensin I was established, the named compound at 17 μmol/kg (drug dissolved in 0.15 ml of H2 O plus 10 μl of 1N NaHCO3), was given via a stomach tube. At timed intervals, the effects of 400 ng/kg of angiotensin I on mean arterial blood pressure were tested. Results are shown below:\nRats (190-290 g body weight) were fasted overnight and then anesthetized with intraperitoneal pentobarbital, 50-60 mg/kg. Tracheostomy was performed and the animals were ventilated mechanically. A cannula was inserted into a femoral vein for injection of angtiotensin I, and a second cannula was inserted into a common carotid artery for direct measurement of arterial blood pressure. […]"}}}
{"smiles": "C[C@H](CSC(=O)[C@@H](N)CCC(=O)O)C(=O)N1CCC[C@H]1C(=O)O", "note": "[N-alpha-[3-(L-alpha-glutamylthio)-2-D-methyl-propanoyl]-L-proline]", "values": [{"measurement": "Blood Pressure Response to 400 ng/kg of Angiotensin I", "setting": "[1]; 0.5 min", "value": "13 % of Control"}, {"measurement": "Blood Pressure Response to 400 ng/kg of Angiotensin I", "setting": "[1]; 3 min", "value": "13 % of Control"}, {"measurement": "Blood Pressure Response to 400 ng/kg of Angiotensin I", "setting": "[1]; 7 min", "value": "13 % of Control"}, {"measurement": "Blood Pressure Response to 400 ng/kg of Angiotensin I", "setting": "[1]; 11 min", "value": "21 % of Control"}, {"measurement": "Blood Pressure Response to 400 ng/kg of Angiotensin I", "setting": "[1]; 22 min", "value": "21 % of Control"}, {"measurement": "Blood Pressure Response to 400 ng/kg of Angiotensin I", "setting": "[1]; 28 min", "value": "18 % of Control"}, {"measurement": "Blood Pressure Response to 400 ng/kg of Angiotensin I", "setting": "[1]; 37 min", "value": "29 % of Control"}, {"measurement": "Blood Pressure Response to 400 ng/kg of Angiotensin I", "setting": "[1]; 47 min", "value": "37 % of Control"}, {"measurement": "Blood Pressure Response to 400 ng/kg of Angiotensin I", "setting": "[1]; 56 min", "value": "39 % of Control"}, {"measurement": "Blood Pressure Response to 400 ng/kg of Angiotensin I", "setting": "[1]; 82 min", "value": "53 % of Control"}, {"measurement": "Blood Pressure Response to 400 ng/kg of Angiotensin I", "setting": "[1]; 92 min", "value": "71 % of Control"}, {"measurement": "Blood Pressure Response to 400 ng/kg of Angiotensin I", "setting": "[2]; oral 10 μmol/kg, 9 min, Ex. 244", "value": "66 % of Control"}, {"measurement": "Blood Pressure Response to 400 ng/kg of Angiotensin I", "setting": "[2]; oral 10 μmol/kg, 18 min, Ex. 244", "value": "39 % of Control"}, {"measurement": "Blood Pressure Response to 400 ng/kg of Angiotensin I", "setting": "[2]; oral 10 μmol/kg, 26 min, Ex. 244", "value": "39 % of Control"}, {"measurement": "Blood Pressure Response to 400 ng/kg of Angiotensin I", "setting": "[2]; oral 10 μmol/kg, 33 min, Ex. 244", "value": "26 % of Control"}, {"measurement": "Blood Pressure Response to 400 ng/kg of Angiotensin I", "setting": "[2]; oral 10 μmol/kg, 39 min, Ex. 244", "value": "18 % of Control"}, {"measurement": "Blood Pressure Response to 400 ng/kg of Angiotensin I", "setting": "[2]; oral 10 μmol/kg, 45 min, Ex. 244", "value": "18 % of Control"}, {"measurement": "Blood Pressure Response to 400 ng/kg of Angiotensin I", "setting": "[2]; oral 10 μmol/kg, 53 min, Ex. 244", "value": "13 % of Control"}, {"measurement": "Blood Pressure Response to 400 ng/kg of Angiotensin I", "setting": "[2]; oral 10 μmol/kg, 64 min, Ex. 244", "value": "13 % of Control"}, {"measurement": "Blood Pressure Response to 400 ng/kg of Angiotensin I", "setting": "[2]; oral 10 μmol/kg, 77 min, Ex. 244", "value": "26 % of Control"}, {"measurement": "Blood Pressure Response to 400 ng/kg of Angiotensin I", "setting": "[2]; oral 10 μmol/kg, 89 min, Ex. 244", "value": "26 % of Control"}, {"measurement": "Blood Pressure Response to 400 ng/kg of Angiotensin I", "setting": "[2]; oral 10 μmol/kg, 111 min, Ex. 244", "value": "24 % of Control"}, {"measurement": "Blood Pressure Response to 400 ng/kg of Angiotensin I", "setting": "[2]; oral 10 μmol/kg, 125 min, Ex. 244", "value": "26 % of Control"}]}
{"smiles": "C[C@H](CSC(=O)[C@H](Cc1ccccc1)NC(=O)OC(C)(C)C)C(=O)N1CCC[C@H]1C(=O)O", "note": "[N-alpha-[3-(N-alpha-tert-butyloxycarbonyl-L-phenylalanylthio)-2-D-methylpropanoyl]-L-proline]", "values": [{"measurement": "Blood Pressure Response to 400 ng/kg Angiotensin I", "setting": "[1]; 0.5 min", "value": "0 % of Control"}, {"measurement": "Blood Pressure Response to 400 ng/kg Angiotensin I", "setting": "[1]; 3 min", "value": "19 % of Control"}, {"measurement": "Blood Pressure Response to 400 ng/kg Angiotensin I", "setting": "[1]; 9 min", "value": "19 % of Control"}, {"measurement": "Blood Pressure Response to 400 ng/kg Angiotensin I", "setting": "[1]; 13 min", "value": "22 % of Control"}, {"measurement": "Blood Pressure Response to 400 ng/kg Angiotensin I", "setting": "[1]; 18 min", "value": "31 % of Control"}, {"measurement": "Blood Pressure Response to 400 ng/kg Angiotensin I", "setting": "[1]; 22 min", "value": "31 % of Control"}, {"measurement": "Blood Pressure Response to 400 ng/kg Angiotensin I", "setting": "[1]; 34 min", "value": "50 % of Control"}, {"measurement": "Blood Pressure Response to 400 ng/kg Angiotensin I", "setting": "[1]; 47 min", "value": "63 % of Control"}, {"measurement": "Blood Pressure Response to 400 ng/kg Angiotensin I", "setting": "[1]; 65 min", "value": "78 % of Control"}, {"measurement": "Blood Pressure Response to 400 ng/kg Angiotensin I", "setting": "[1]; 103 min", "value": "75 % of Control"}, {"measurement": "Blood Pressure Response to 400 ng/kg Angiotensin I", "setting": "[1]; 113 min", "value": "94 % of Control"}, {"measurement": "Blood Pressure Response to 400 ng/kg of Angiotensin I", "setting": "[2]; oral 20 μmol/kg, 3 min, Ex. 233", "value": "100 % of Control"}, {"measurement": "Blood Pressure Response to 400 ng/kg of Angiotensin I", "setting": "[2]; oral 20 μmol/kg, 11 min, Ex. 233", "value": "43 % of Control"}, {"measurement": "Blood Pressure Response to 400 ng/kg of Angiotensin I", "setting": "[2]; oral 20 μmol/kg, 22 min, Ex. 233", "value": "27 % of Control"}, {"measurement": "Blood Pressure Response to 400 ng/kg of Angiotensin I", "setting": "[2]; oral 20 μmol/kg, 29 min, Ex. 233", "value": "24 % of Control"}, {"measurement": "Blood Pressure Response to 400 ng/kg of Angiotensin I", "setting": "[2]; oral 20 μmol/kg, 34 min, Ex. 233", "value": "22 % of Control"}, {"measurement": "Blood Pressure Response to 400 ng/kg of Angiotensin I", "setting": "[2]; oral 20 μmol/kg, 51 min, Ex. 233", "value": "19 % of Control"}]}
